# Experimental data from patent US9682995B2, “Amino-substituted isothiazoles” (BAYER PHARMA AKTIENGESELLSCHAFT, priority 2013, dated 2017).
# What was measured:
# [1] = target: human Bub1 (Homo sapiens (Human), UniProt O43683); assay: Bub1 kinase assay (TR-FRET); type: biochemical; conditions: 10 μM ATP; read-out: Bub1 avg (IC50 [mol/l])
# Text: Bub1-inhibitory activity of compounds of the present invention was quantified employing the Bub1 TR-FRET assay as described in the following paragraphs.
# N-terminally His6-tagged recombinant catalytic domain of human Bub1 (amino acids 704-1085), expressed in insect cells (Hi5) and purified by Ni-NTA affinity chromatography and subsequent size exclusion chromatography, was used as enzyme. As substrate for the kinase reaction the biotinylated peptide biotin-Ahx-VLLPKKSFAEPG (C-terminus in amid form) was used which can be purchased e.g. form the company Biosyntan (Berlin, Germany).
# For the assay 50 nl of a 100 fold concentrated solution of the test compound in DMSO was pipetted into a black low volume 384 well microtiter plate (Greiner Bio-One, Frickenhausen, Germany), 2 μl of a solution of Bub1 in aqueous assay buffer [50 mM Tris/HCl pH 7.5, 10 mM magnesium chloride (MgCl2), 200 mM potassium chloride (KCl), 1.0 mM dithiothreitol (DTT), 0.1 mM sodium ortho-vanadate, 1% (v/v) glycerol, 0.01% (w/v) bovine serum albumine (BSA), 0.005% (v/v) Trition X-100 (Sigma), 1× Complete EDTA-free protease inhibitor mixture (Roche)] were added and the mixture was incubated for 15 min at 22° C. to allow pre-binding of the test compounds to the enzyme before the start of the kinase reaction. Then the kinase reaction was started by the addition of 3 μl of a solution of adenosine-tri-phosphate (ATP, 16.7 μM=>final conc. in the 5 μl assay volume is 10 μM) and substrate (1.67 μM=>final conc. in the 5 μl assay volume is 1 μM) in assay buffer and the resulting mixture was incubated for a reaction time of 60 min at 22° C. The concentration of Bub1 was adjusted depending of the activity of the enzyme lot and was chosen appropriate to have the assay in the linear range, typical concentrations were in the range of 200 ng/ml. The reaction was stopped by the addition of 5 μl of a solution of TR-FRET detection reagents (0.2 μM streptavidine-XL665 [Cisbio Bioassays, Codolet, France] and 1 nM anti-phosho-Serine antibody [Merck Millipore, cat. #35-001] and 0.4 nM LANCE EU-W1024 labeled anti-mouse IgG antibody [Perkin-Elmer, product no. AD0077, as an alternative a Terbium-cryptate-labeled anti-mouse IgG antibody from Cisbio Bioassays can be used]) in an aqueous EDTA-solution (50 mM EDTA, 0.2% (w/v) bovine serum albumin in 100 mM HEPES pH 7.5).
# The resulting mixture was incubated 1 h at 22° C. to allow the formation of complex between the phosphorylated biotinylated peptide and the detection reagents. Subsequently the amount of phosphorylated substrate was evaluated by measurement of the resonance energy transfer from the Eu-chelate to the streptavidine-XL. Therefore, the fluorescence emissions at 620 nm and 665 nm after excitation at 350 nm was measured in a TR-FRET reader, e.g. a Rubystar or Pherastar (both from BMG Labtechnologies, Offenburg, Germany) or a Viewlux (Perkin-Elmer). The ratio of the emissions at 665 nm and at […] was taken as the measure for the amount of phosphorylated substrate. The data were normalised (enzyme reaction without inhibitor=0% inhibition, all other assay components but no enzyme=100% inhibition).
# [2] = test system: spindle assembly checkpoint; assay: SAC-Formation - Paclitaxel-Induced Assay; type: cell-based; conditions: Homo sapiens; HeLa cells, paclitaxel 0.05 μM, 24 h, phosphorylated histone H3 on serine 10
# Text: The spindle assembly checkpoint assures the proper segregation of chromosomes during mitosis. Upon entry into mitosis, chromosomes begin to condensate which is accompanied by the phosphorylation of histone H3 on serine 10. Dephosphorylation of histone H3 on serine 10 begins in anaphase and ends at early telophase. Accordingly, phosphorylation of histone H3 on serine 10 can be utilized as a marker of cells in mitosis. Nocodazole is a microtubule destabilizing substance. Paclitaxel is a microtubule stabilizing compound. Thus, nocodazole as well as paclitaxel interfere with microtubule dynamics and mobilize the spindle assembly checkpoint. […] The mitotic breakthrough can be detected by the decrease of cells with phosphorylation of histone H3 on serine 10. This decline is used as a marker to determine the capability of compounds of the present invention to induce a mitotic breakthrough. The typical morphological alteration of nuclei with a prematurely completed mitosis after SAC-inhibition can be monitored via image analysis routines supporting those findings.
# The nocodazole and paclitaxel variations were used to focus on compounds that are capable of inhibiting a SAC induced by both microtubule destabilization as well as microtubule stabilization. When SAC inducing agents and compounds are given simultaneously, inhibitors that effectively block the SAC during formation or abrogation are identified. When cells are incubated with a SAC inducing agent and the SAC interfering compound is given after a defined time, inhibitors are identified that effectively block SAC abrogation.
# Cultivated cells of the human cervical tumor cell line HeLa (ATCC CCL-2) were plated at a density of 1000 cells/well in a 1536-well microtiter plate in 2 μl PAA Ham's F12 Medium supplemented with 1% (v/v) glutamine, 1% (v/v) penicillin, 1% (v/v) streptomycin and 10% (v/v) fetal calf serum. After incubation overnight at 37° C., 10 μl/well paclitaxel at a final concentration of 0.05 μM were added to cells. Test compounds solubilized in dimethyl sulfoxide (DMSO) were added at various concentrations (0 μM, as well as in the range of 0.005 μM-20 μM; the final concentration of the solvent DMSO was 0.5% (v/v)). Cells were incubated for 24 h at 37° C. in the presence of test compounds in combination with paclitaxel. Thereafter, cells were fixed in 4% (v/v) paraformaldehyde in phosphate buffered saline (PBS) at 4° C. overnight then permeabilized in 0.1% (v/v) Triton X™ 100 in PBS at room temperature for 20 min and blocked in 0.5% (v/v) bovine serum albumin (BSA) in PBS at room temperature for 15 min. After washing with PBS, 5 μl/well antibody solution (anti-phospho-histone H3 clone 3H10, FITC; Millipore, Cat #16-222; 1:1000 dilution) was added to cells, which were incubated for 2 h at room temperature. Afterwards, cells were washed with PBS and 5 μl/well solution of HOECHST 33342 dye (5 μg/ml) was added to cells and cells were incubated 15 min at room temperature in the dark. Cells were washed twice with PBS then covered with PBS and stored at 4° C. until analysis. Images were acquired with a PERKIN ELMER OPERA™ High-Content Analysis reader. Images were analyzed with image analysis software MetaXpress™ from Molecular devices utilizing the Mitotic Index application module. In this assay both labels HOECHST 33342 and phosphorylated Histone H3 on serine 10 were measured. HOECHST 33342 labels the DNA and is used to count the cell number. The staining of phosphorylated Histone H3 on serine 10 determines the number of mitotic cells. […] Otherwise cells were arrested at G2/M phase of the cell cycle progression. The raw assay data were further analyzed by four-parametric hill equation using Genedata's Assay Analyzer and Condoseo software.
# Sequence of human Bub1 (O43683 704-1085): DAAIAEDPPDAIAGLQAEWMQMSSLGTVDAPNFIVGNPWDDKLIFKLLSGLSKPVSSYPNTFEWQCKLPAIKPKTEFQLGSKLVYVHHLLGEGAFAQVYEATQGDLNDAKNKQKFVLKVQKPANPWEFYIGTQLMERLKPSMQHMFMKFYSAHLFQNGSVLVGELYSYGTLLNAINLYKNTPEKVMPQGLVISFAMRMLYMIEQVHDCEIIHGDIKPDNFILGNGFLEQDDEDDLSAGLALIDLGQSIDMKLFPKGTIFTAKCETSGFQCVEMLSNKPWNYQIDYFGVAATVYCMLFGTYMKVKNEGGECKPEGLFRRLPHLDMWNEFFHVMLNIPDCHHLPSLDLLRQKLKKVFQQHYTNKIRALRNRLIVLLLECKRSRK
SMILES,IC50 [1] [µM],IC50 [2] [µM]
"COc1ccc(NC(=O)c2c(C)nsc2Nc2cccc(C#N)n2)cn1 [Example 37, 5-[(6-Cyanopyridin-2-yl)amino]-N-(6-methoxypyridin-3-yl)-3-methyl-1,2-thiazole-4-carboxamide]",> 20,0.57
"CCc1ccccc1NC(=O)c1c(C)nsc1Nc1cnc2cc(F)ccc2n1 [Example 20, N-(2-Ethylphenyl)-5-[(6-fluoroquinoxalin-2-yl)amino]-3-methyl-1,2-thiazole-4-carboxamide]",> 20,0.4
"CCc1ccccc1NC(=O)c1c(C)nsc1Nc1nccc(OC)n1 [Example 16, N-(2-Ethylphenyl)-5-[(4-methoxypyrimidin-2-yl)amino]-3-methyl-1,2-thiazole-4-carboxamide]",> 20,> 20
"Cc1nsc(Nc2cncc(C(=O)N(C)C)n2)c1C(=O)Nc1ccc(F)c(F)c1 [Example 104, 6-({4-[(3,4-Difluorophenyl)-carbamoyl]-3-methyl-1,2-thiazol-5-yl}amino)-N,N-dimethyl-pyrazine-2-carboxamide]",> 20,7.5
"CCc1ccnc(Nc2snc(C)c2C(=O)Nc2ccccc2CC)n1 [Example 17, N-(2-Ethylphenyl)-5-[(4-ethylpyrimidin-2-yl)amino]-3-methyl-1,2-thiazole-4-carboxamide]",> 20,19
"Cc1nsc(Nc2cnc3ccccc3n2)c1C(=O)Nc1ccc(Oc2ccc(F)cc2F)nc1 [Example 113, N-[6-(2,4-Difluorophenoxy)pyridin-3-yl]-3-methyl-5-(quinoxalin-2-ylamino)-1,2-thiazole-4-carboxamide]",> 20,1
"COc1ccc(NC(=O)c2c(C)nsc2Nc2nc3c(C(F)(F)F)cccc3s2)cn1 [Example 48, N-(6-Methoxypyridin-3-yl)-3-methyl-5-{[4-(trifluoromethyl)-1,3-benzothiazol-2-yl]-amino}-1,2-thiazole-4-carboxamide]",> 20,0.14
"Cc1nsc(Nc2nc3c(C(F)(F)F)cccc3s2)c1C(=O)Nc1ccc(Cl)c(F)c1 [Example 53, N-(4-Chloro-3-fluorophenyl)-3-methyl-5-{[4-(trifluoromethyl)-1,3-benzothiazol-2-yl]amino}-1,2-thiazole-4-carboxamide]",> 20,0.59
"CCc1ccccc1NC(=O)c1c(C)nsc1Nc1ccc(C#N)cn1 [Example 7, 5-[(5-Cyanopyridin-2-yl)amino]-N-(2-ethylphenyl)-3-methyl-1,2-thiazole-4-carboxamide]",> 20,2.5
"COc1ccc(NC(=O)c2c(C)nsc2Nc2cnc3ccc(F)cc3n2)cn1 [Example 44, 5-[(7-Fluoroquinoxalin-2-yl)amino]-N-(6-methoxypyridin-3-yl)-3-methyl-1,2-thiazole-4-carboxamide]",> 20,0.49
"Cc1nsc(Nc2cc(C#N)ccn2)c1C(=O)Nc1ccc(OC2CCCCC2)nc1 [Example 118, 5-[(4-Cyanopyridin-2-yl)amino]-N-[6-(cyclohexyloxy)pyridin-3-yl]-3-methyl-1,2-thiazole-4-carboxamide]",> 20,0.056
"CCc1ccccc1NC(=O)c1c(C)nsc1Nc1ncnc2sccc12 [Example 12, N-(2-Ethylphenyl)-3-methyl-5-(thieno[2,3-d]pyrimidin-4-ylamino)-1,2-thiazole-4-carboxamide]",> 20,6.9
"CCOc1ccc(NC(=O)c2c(C)nsc2Nc2cnc3ccccc3n2)cn1 [Example 119, N-(6-Ethoxypyridin-3-yl)-3-methyl-5-(quinoxalin-2-ylamino)-1,2-thiazole-4-carboxamide]",> 20,2.5
"CCOC(=O)c1coc(Nc2snc(C)c2C(=O)Nc2ccc(OC)nc2)n1 [Example 100, Ethyl 2-({4-[(6-methoxypyridin-3-yl)carbamoyl]-3 methyl-1,2-thiazol-5-yl}amino)-1,3-oxazole-4-carboxylate]",> 20,3.4
